What all share (format): cell-based
The test system of assay [1] is VCaP cells. Nature of the assay: VCaP growth inhibition assay. Conditions: 30 pM R1881, 9 days, CTG. A digest of the protocol: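 VCaP cells in phenol red-free DMEM/5% CSS, pre-incubated 72 h, then stimulated with R1881 (final 30 pM) and treated with 1:5 serial dilutions (final 100 nM to 10 fM) for 9 days at 37 °C. Viability by CellTiter-Glo luminescence; IC50 from 4-parameter logistic fit of RLU vs concentration.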

In assay [2] the test system is HEK-293 cells. The experiment in a line: HEK-293 growth inhibition assay. Conditions: 3 days, CTG. The method, then: Cluster plates are returned to the incubator (37*C/5% CO2) for 24 hours prior to treatment. […] Cluster plates are returned to the incubator for 3 days.
After the 3-day treatment period, 100 uL media was removed from each well by aspiration and 100 uL room temperature CTG reagent (Promega Cat #G7573) is added back to each well. The cluster plates are placed on a shaker and incubated at room temperature for 20 minutes. Following this shaking/incubation, cluster plates are read on a luminometer (BMG ClarioStar). IC50 values are obtained by graphing the RLU data vs. compound concentration with nonlinear regression 4-parameter logistic curves (GraphPad Prism).

The test system of assay [3] is AR / CBP ternary complex. The experiment in a line: Ternary complex formation assay (sandwich ELISA, AR capture / CBP detection) in VCaP cell lysates. Conditions: 1.5 hours treatment, sandwich ELISA (AR capture, CBP or p300 detection). The gist of the method:
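VCaP cells (50K/well, 5% charcoal-stripped FBS, ≥3 days) treated with bifunctional compound for 1.5 h, then lysed 30 min at 4 °C. AR captured on anti-AR (AR 441) plates; bound CBP or p300 detected by rabbit mAb plus HRP secondary. QuantaRed chemifluorescence read at ex 570/em 585, immediately and at 5 and 15 min.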

From patent US20250129070A1, “BIFUNCTIONAL ANDROGEN RECEPTOR COMPOUNDS” (priority 2023, published 2025) come the findings set out here.

Each structure is given as a SMILES string.

With `CNC(=O)N1CCc2c(c(N3CCCc4cc(-c5cnn(C)c5)c(C(F)F)cc43)nn2C2CCN(C(=O)CN3CCN(c4ccc(C(=O)NC5C(C)(C)C(Oc6ccc(C#N)c(Cl)c6)C5(C)C)cc4)CC3)CC2)C1` (stereo not drawn) [Compound 41, 1-[1-[2-[4-[4-[[3-(3-chloro-4-cyano-phenoxy)-2,2,4,4-tetramethyl-cyclobutyl]carbamoyl]phenyl]piperazin-1-yl]acetyl]-4-piperidyl]-3-[7-(difluoromethyl)-6-(1-methylpyrazol-4-yl)-3,4-dihydro-2H-quinolin-1-yl]-N-methyl-6,7-dihydro-4H-pyrazolo[4,3-c]pyridine-5-carboxamide], the results for the IC50 in assay [1] and in assay [2] were 0.1 to 1 nM and > 10000 nM, respectively. In addition, in assay [3], the half-maximal effective concentration (EC50) is < 1 nM.
Regarding `CC(=O)N1CCc2c(c(-c3cccc4cc(-c5ccc(OCc6ncc(C(=O)NC7C(C)(C)C(Oc8ccc(C#N)c(Cl)c8)C7(C)C)cn6)nc5)ncc34)nn2C2CCOCC2)C1` (stereo not drawn) [Compound 72, 2-[[5-[8-(5-acetyl-1-tetrahydropyran-4-yl-6,7-dihydro-4H-pyrazolo[4,3-c]pyridin-3-yl)-3-isoquinolyl]-2-pyridyl]oxymethyl]-N-[3-(3-chloro-4-cyano-phenoxy)-2,2,4,4-tetramethyl-cyclobutyl]pyrimidine-5-carboxamide], the values for the IC50 in assay [1] and in assay [2] were 0.1 to 1 nM and > 10000 nM, respectively. Also, in assay [3], the EC50 was < 1 nM.
Take `CC(=O)N1CCc2c(c(N3CCCc4cc(-c5cnn(C)c5)c(C(F)F)cc43)nn2C2CCN(CC3C(C)CN(c4ncc(C(=O)NC5C(C)(C)C(Oc6ccc(C#N)c(Cl)c6)C5(C)C)cn4)CC3C)CC2)C1` (stereo not drawn) [Compound 350, 2-[4-[[4-[5-acetyl-3-[7-(difluoromethyl)-6-(1-methylpyrazol-4-yl)-3,4-dihydro-2H-quinolin-1-yl]-6,7-dihydro-4H-pyrazolo[4,3-c]pyridin-1-yl]-1-piperidyl]methyl]-3,5-dimethyl-1-piperidyl]-N-[3-(3-chloro-4-cyano-phenoxy)-2,2,4,4-tetramethyl-cyclobutyl]pyrimidine-5-carboxamide]: the results for the IC50 in assay [1] and in assay [2] were ≤ 0.1 nM and > 1000 nM, respectively. In assay [3], the EC50 is < 1 nM.
The corresponding values for `CC(=O)N1CCc2c(c(N3CCCc4cc(-c5cnn(C)c5)c(C(F)F)cc43)nn2C2CCN(CC3CN(c4ncc(C(=O)NC5C(C)(C)C(Oc6ccc(C#N)c(Cl)c6)C5(C)C)cn4)C3)CC2)C1` (stereo not drawn) [Compound 20, 2-[3-[[4-[5-acetyl-3-[7-(difluoromethyl)-6-(1-methylpyrazol-4-yl)-3,4-dihydro-2H-quinolin-1-yl]-6,7-dihydro-4H-pyrazolo[4,3-c]pyridin-1-yl]-1-piperidyl]methyl]azetidin-1-yl]-N-[3-(3-chloro-4-cyano-phenoxy)-2,2,4,4-tetramethyl-cyclobutyl]pyrimidine-5-carboxamide] are ≤ 0.1 nM, > 10000 nM and < 1 nM.
Turning to `CC(=O)N1CCc2c(c(-c3cccc4cc(-c5cnc(C(=O)NCc6ncc(C(=O)NC7C(C)(C)C(Oc8ccc(C#N)c(Cl)c8)C7(C)C)cn6)nc5)ncc34)nn2C2CCOCC2)C1` (stereo not drawn) [Compound 75, 5-[8-(5-acetyl-1-tetrahydropyran-4-yl-6,7-dihydro-4H-pyrazolo[4,3-c]pyridin-3-yl)-3-isoquinolyl]-N-[[5-[[3-(3-chloro-4-cyano-phenoxy)-2,2,4,4-tetramethyl-cyclobutyl]carbamoyl]pyrimidin-2-yl]methyl]pyrimidine-2-carboxamide], the IC50 in assay [1] was 0.1 to 1 nM; in assay [2], > 10000 nM. Moreover, in assay [3], the EC50 is > 100 nM.
The corresponding values for `CNC(=O)N1CCc2c(c(N3CCCc4cc(-c5cnn(C)c5)c(C(F)F)cc43)nn2C2CCN(C(=O)COCCOC3CCN(c4ncc(C(=O)NC5C(C)(C)C(Oc6ccc(C#N)c(Cl)c6)C5(C)C)cn4)CC3)CC2)C1` (stereo not drawn) [Compound 98, 1-[1-[2-[2-[[1-[5-[[3-(3-chloro-4-cyano-phenoxy)-2,2,4,4-tetramethyl-cyclobutyl]carbamoyl]pyrimidin-2-yl]-4-piperidyl]oxy]ethoxy]acetyl]-4-piperidyl]-3-[7-(difluoromethyl)-6-(1-methylpyrazol-4-yl)-3,4-dihydro-2H-quinolin-1-yl]-N-methyl-6,7-dihydro-4H-pyrazolo[4,3-c]pyridine-5-carboxamide] are ≤ 0.1 nM, > 10000 nM and < 1 nM.
For the compound `CC(=O)N1CCc2c(c(N3CCCc4cc(-c5cnn(C)c5)c(C(F)F)cc43)nn2C2CCN(C(=O)COC3CCN(c4ncc(C(=O)NC5C(C)(C)C(Oc6ccc(C#N)c(Cl)c6)C5(C)C)cn4)CC3)CC2)C1` (stereo not drawn) [Compound 69, 2-[4-[2-[4-[5-acetyl-3-[7-(difluoromethyl)-6-(1-methylpyrazol-4-yl)-3,4-dihydro-2H-quinolin-1-yl]-6,7-dihydro-4H-pyrazolo[4,3-c]pyridin-1-yl]-1-piperidyl]-2-oxo-ethoxy]-1-piperidyl]-N-[3-(3-chloro-4-cyano-phenoxy)-2,2,4,4-tetramethyl-cyclobutyl]pyrimidine-5-carboxamide], the IC50 in assay [1] was 0.1 to 1 nM; in assay [2], > 10000 nM. For the same compound, the EC50 in assay [3] is < 1 nM.
With `CNC(=O)N1CCc2c(c(N3CCCc4cc(-c5cnn(C)c5)c(C(F)F)cc43)nn2C2CCN(C(=O)COCCOCCN3CCN(c4ncc(C(=O)NC5C(C)(C)C(Oc6ccc(C#N)c(Cl)c6)C5(C)C)cn4)CC3)CC2)C1` (stereo not drawn) [Compound 103, 1-[1-[2-[2-[2-[4-[5-[[3-(3-chloro-4-cyano-phenoxy)-2,2,4,4-tetramethyl-cyclobutyl]carbamoyl]pyrimidin-2-yl]piperazin-1-yl]ethoxy]ethoxy]acetyl]-4-piperidyl]-3-[7-(difluoromethyl)-6-(1-methylpyrazol-4-yl)-3,4-dihydro-2H-quinolin-1-yl]-N-methyl-6,7-dihydro-4H-pyrazolo[4,3-c]pyridine-5-carboxamide], the IC50 in assay [1] is 0.1 to 1 nM; in assay [2], > 10000 nM. Moreover, the EC50 in assay [3] was < 1 nM.
For `COc1cc(OC2C(C)(C)C(NC(=O)c3ccc(N4CC(C)C(CN5CCC(n6nc(N7CCCc8cc(-c9cnn(C)c9)c(C(F)F)cc87)c7c6CCN(C(C)=O)C7)CC5)C(C)C4)cc3)C2(C)C)ccc1C#N` (stereo not drawn) [Compound 327, 4-[4-[[4-[5-acetyl-3-[7-(difluoromethyl)-6-(1-methylpyrazol-4-yl)-3,4-dihydro-2H-quinolin-1-yl]-6,7-dihydro-4H-pyrazolo[4,3-c]pyridin-1-yl]-1-piperidyl]methyl]-3,5-dimethyl-1-piperidyl]-N-[3-(4-cyano-3-methoxy-phenoxy)-2,2,4,4-tetramethyl-cyclobutyl]benzamide], the IC50 in assay [1] is 0.1 to 1 nM; in assay [2], > 1000 nM. Besides, the EC50 in assay [3] is < 1 nM.
As to `CC(=O)N1CCc2c(c(-c3cccc4cc(-c5ccc(C(=O)NCC6CCN(c7ncc(C(=O)NC8C(C)(C)C(Oc9ccc(C#N)c(Cl)c9)C8(C)C)cn7)CC6)nc5)ncc34)nn2C2CCOCC2)C1` (stereo not drawn) [Compound 110, 2-[4-[[[5-[8-(5-acetyl-1-tetrahydropyran-4-yl-6,7-dihydro-4H-pyrazolo[4,3-c]pyridin-3-yl)-3-isoquinolyl]pyridine-2-carbonyl]amino]methyl]-1-piperidyl]-N-[3-(3-chloro-4-cyano-phenoxy)-2,2,4,4-tetramethyl-cyclobutyl]pyrimidine-5-carboxamide], the values for the IC50 in assay [1] and in assay [2] were ≤ 0.1 nM and > 10000 nM, respectively.
In turn, `CC(=O)N1CCc2c(c(N3CCCc4cc(-c5cnn(C)c5)c(C)cc43)nn2C2CCN(CC3CCN(c4ncc(C(=O)NC5C(C)(C)C(Oc6ccc(C#N)c(C)c6)C5(C)C)cn4)CC3(C)C)CC2)C1` (stereo not drawn) [Compound 466, 2-[4-[[4-[5-acetyl-3-[7-methyl-6-(1-methylpyrazol-4-yl)-3,4-dihydro-2H-quinolin-1-yl]-6,7-dihydro-4H-pyrazolo[4,3-c]pyridin-1-yl]-1-piperidyl]methyl]-3,3-dimethyl-1-piperidyl]-N-[3-(4-cyano-3-methyl-phenoxy)-2,2,4,4-tetramethyl-cyclobutyl]pyrimidine-5-carboxamide] had a 50% inhibitory concentration (IC50) in assay [1] of 0.1 to 1 nM. The EC50 in assay [3] was < 1 nM.
On to `COc1cc(OC2C(C)(C)C(NC(=O)c3ccc(N4CCN(C5CCN(c6ccc(-c7cc8c(cn7)N(c7nn(C9CCOCC9)c9c7CN(C(C)=O)CC9)CCC8)cn6)CC5)CC4)cc3)C2(C)C)ccc1C#N` (stereo not drawn) [Compound 323, 4-[4-[1-[5-[l-(5-acetyl-1-tetrahydropyran-4-yl-6,7-dihydro-4H-pyrazolo[4,3-c]pyridin-3-yl)-3,4-dihydro-2H-1,7-naphthyridin-6-yl]-2-pyridyl]-4-piperidyl]piperazin-1-yl]-N-[3-(4-cyano-3-methoxy-phenoxy)-2,2,4,4-tetramethyl-cyclobutyl]benzamide], for which, in assay [1], the IC50 is ≤ 0.1 nM. For the same compound, the concentration for a half-maximal effect (EC50) in assay [3] was < 1 nM.
